Where “and” joins values, the source holds several entries; their conditions need not be identical. Equal values may be shown once.
Columns and labels:
[1] = appearance of SH045 in urine after i.v. administration; type: in vivo, mice; conditions: 20 mg/kg BW i.v.
Procedure: Mouse renal elimination of SH045 was exploratorily monitored up to their first spontaneous micturition after i.v. administration (20 mg/kg BW). Samples of released urine were assigned to micturition periods of 10–30, 60–80, or 100–120 min following application. Mean urine concentrations of unmetabolized SH045 of 748 ± 31 (n = 3), 1056 ± 104 (n = 3), and 162 ± 17 nM (n = 6), respectively, were recorded.
Via heparin-coated catheters a maximum of 50 µL blood was collected from the tail vein at 0.25, 0.5, 1, 2, 3, 4, 6, 8, or 24 h after administration and immediately centrifuged at 4000× g at 4 °C for 10 min. For repeated administration 20 mg/kg BW SH045 were administered at 8:00 a.m. on five consecutive days, once a day. Blood was taken 1 h and 24 h after drug administration. Tissue samples were harvested from isoflurane-euthanized animals at indicated time points. Mice were transcardially perfused with PBS and dissected tissues were washed to remove remaining blood. Plasma and tissue samples were stored at −80 °C until analysis. Urine was collected by bladder puncture at indicated time points.
For tissue analysis, homogenates (10% in phosphate-buffered saline, PBS) were prepared. Homogenate, plasma, and urine were mixed with IS and extracted with ice-cold ACN, centrifuged, filtered and stored in the autosampler at 6 °C until analysis in duplicates by LC-MS/MS (details in Supplementary Materials SM4).

liver, kidney and lung = test: histopathological examination of tissue after administration of SH045; type: in vivo, mice; conditions: 20 mg/kg BW i.v., single and repeated (5 days); hematoxylin-eosin
Description: Liver, kidney, and lung were collected after repeated administration, fixed and processed for inspection for histopathological alterations (Supplementary Materials SM3).
Larixyl-N-methylcarbamate ((1S,4S,4aR,8aS)-4-((S)-3-hydroxy-3-methylpent-4-en-1-yl)-4a,8,8-trimethyl-3-methylenedeca-hydro-naphthalen-1-yl methylcarbamate, SH045, TRPC6 inhibitor) was synthesized as described by Häfner et al. [1]. (+)-Larixol (internal standard, IS) was isolated from Larix decidua turpentine [2]. Kolliphor® EL was obtained from Caelo (Hilden, Germany). Acetonitrile (ACN), water, and formic acid (LC -MS grade each) were purchased from Fisher Scientific (Schwerte, Germany). […]
SM2 Quantification of SH045 by HPLC and tandem mass spectrometric methods (LC-MS/MS) In brief, chromatographic separation was achieved using a Zorbax Eclipse XDB-C8 column (100 × 3.0 mm, 3.5 μm 80 Å, Agilent Technologies) with linear gradient elution using water and ACN, each with 0.1 % formic acid as additive, during a total run time of 20 min. For quantification (+)-larixol was used as IS. […] Freshly prepared calibration samples for SH045 in plasma and tissue comprised eight concentration levels analyzed in duplicates (2, 5, 10, 100, 200, 800, 1200 and 1600 ng/mL). […]

[2] = system: ischemic lungs explanted from mice; parameters: method as in PMID 29522264; conditions: ex vivo; cited from earlier work

C=C[C@@](C)(O)CC[C@H]1C(=C)C[C@H](OC(=O)NC)[C@H]2C(C)(C)CCC[C@]12C [SH045, (1S,4S,4aR,8aS)-4-((S)-3-Hydroxy-3-methylpent-4-en-1-yl)-4a,8,8-trimethyl-3-methylenedecahydronaphthalen-1-yl methylcarbamate]
urine concentration after 2 h relative to IC50 reported in vitro [1]: about 30 fold | mean urine concentration of unmetabolized SH045 ([1]; micturition period 10–30 min): 748 ± 31 nM | mean urine concentration of unmetabolized SH045 ([1]; micturition period 60–80 min): 1056 ± 104 nM | mean urine concentration of unmetabolized SH045 ([1]; micturition period 100–120 min): 162 ± 17 nM and 160 nM | histopathological changes in liver, kidney and lung (liver, kidney and lung): no histopathological changes were observed | edema formation after reperfusion [2]: reduced edema formation

Reference: publication PMC8998618, “A Pharmacokinetic and Metabolism Study of the TRPC6 Inhibitor SH045 in Mice by LC-MS/MS” (International Journal of Molecular Sciences, 2022)
